Laboratory results from patent EP1003775B1, “HEPATITIS C INHIBITOR PEPTIDES” (BOEHRINGER INGELHEIM (CANADA) LTD., priority 1997, dated 2005).

Test system: NS3 protease
Test: HCV NS3 protease inhibition (recombinant NS3 protease radiometric assays)
Assay type: biochemical, hepatitis C virus
Details: qualitative statement
Procedure: The substrate used for the HCV NS3 protease radiometric assay, DDIVPC-SMSYTW, is cleaved between the cysteine and the serine residues by the enzyme. The sequence DDIVPC-SMSYTW corresponds to the NS5A/NS5B natural cleavage site in which the cysteine residue in P2 has been substituted for a proline. The peptide substrate DDIVPC-SMSYTW and the tracer biotin-DDIVPC-SMS[^125I-Y]TW were incubated with the recombinant NS3 protease in the absence or in the presence of inhibitors. The separation of substrate from products was performed by adding avidin-coated agarose beads to the assay mixture followed by filtration. The amount of SMS [^125I-Y]TW product found in the filtrate (with or without inhibitor) allowed for the calculation of the percentage of substrate conversion and of the percentage of inhibition.
The assay was performed in a 96-well polypropylene plate. Each well contained: • 20 µL substrate/tracer in assay buffer; • 10 µL ± inhibitor in 20% DMSO/assay buffer; • 10 µL NS3 protease 1b. […]
The filtrates were counted on a Packard® TopCount instrument using a ^125I-liquid protocol for 1 minute. The %inhibition was calculated with the following equation: 100- [(countsinh -countsblank ) / (countsctl -countsblank ) x 100] […]
The value of IC50 was calculated in the same manner as in Example 19.

Substance: Ac-DDIVPC-OH [Ac-D-D-I-V-P-C-OH]
- inhibition of the NS3 protease: inhibitory
